Source: patent US7678390B2, “Carbon monoxide as a biomarker and therapeutic agent” (priority 1999, dated 2010)

Experiments:
[1] = test system: p38 MAP kinase; assay: LPS-induced MAP kinase activation, Western blot (p38); assay type: cell-based, mouse; conditions: RAW 264.7 macrophages, LPS in the presence of CO
From the text: (§1) Animals. Male C57BL/6 and IL-10 (−/−) mice were purchased from Jackson Laboratory (Bar Harbor, Me.), and allowed to acclimate for one week with rodent chow and water ad libitum. The MKK (−/−) mice were generated as previously described [Lu, et al., EMBO J. 18:1845-1857 (1999)]. Wild type littermates were used as controls. All animals were housed in accordance with guidelines from the American Association for Laboratory Animal Care and Research Protocols and were approved by the Animal Care and Use Committee of Yale University School of Medicine. Reagents. All reagents were purchased from Sigma Chemical Co. (St Louis, Mo.) unless specified otherwise. Plasmid Construct. Plasmid pSFFV/HO-1 was constructed by insertion of the rat HO-1 cDNA [Shibahara, et al., Proc. Natl. Acad. Sci. USA. 82: 7865-7869 (1985)] downstream of the Friend spleen focus-forming virus 5′ long-terminal repeat in the mammalian expression vector pSFFV/neo [Fuhlbrigge, et al, Proc. Natl. Acad. Sci. USA. 85: 5649-5653 (1988)] (kindly provided by Stanley Korsmeyer). Transfection. […] Gas samples were taken by the analyzer through a port in the top of the chambers at a rate of 1 L/min and analyzed by electrochemical detection, with a sensitivity of 10-600 ppm. Concentration levels were measured hourly and there were no fluctuations in the CO concentrations once the chamber had equilibrated (approximately 5 min). […]

[2] = test system: ERK1/ERK2; assay: LPS-induced MAP kinase activation, Western blot (ERK1/ERK2); assay type: cell-based, mouse; conditions: RAW 264.7 macrophages, LPS in the presence of CO
From the text: as §1

[3] = test system: JNK; assay: LPS-induced MAP kinase activation, Western blot (JNK); assay type: cell-based, mouse; conditions: RAW 264.7 macrophages, LPS in the presence of CO
From the text: as §1

[4] = test system: rats exposed to hyperoxia (>98% O2); assay: Survival of rats in lethal hyperoxia in the presence of CO; assay type: in vivo, rat; conditions: for % Survival 72 h / % Survival 100 h: hyperoxia (>98%)
From the text: Pathogen-free male Sprague-Dawley rats (250-300 g) were purchased from Harlan Sprague-Dawley (Indianapolis, Ind.) and allowed to acclimate upon arrival for 7 days prior to experimentation. Animals were fed rodent chow and water ad libitum. All experimental protocols were approved by the Animal Care and Use Committee.
Animals were exposed to >98% O2 or 98% O2+CO mixtures at a flow rate of 12 liters/min in a 3.70-cubic-foot glass exposure chamber. Animals were supplied food and water during the exposures. CO at a concentration of 1% (10,000 ppm) in compressed air was mixed with >98% O2 in a stainless steel mixing cylinder prior to entering the exposure chamber. By varying the flow rates of CO into the mixing cylinder, concentrations delivered to the exposure chamber were controlled. Because the flow rate was primarily determined by the O2 flow, only the CO flow was changed to generate the different concentrations delivered to the exposure chamber. A carbon monoxide analyzer (Interscan Corporation, Chatsworth, Calif.) was used to measure CO levels continuously in the chamber. Gas samples were taken by the analyzer through a port in the top of the exposure chamber at a rate of 1 liter/min and analyzed by electrochemical detection with a sensitivity of 10 ppm to 600 ppm. CO levels in the chamber were recorded at hourly intervals and there were no changes in chamber CO concentrations once the chamber had equilibrated. O2 concentrations in the chamber were determined using a gas spectrometer.
We used clinically relevant in vivo models of oxidative stress to test the hypothesis that CO mediates the protective effects of HO-1 against oxidative stress. Hyperoxia when administered to animals produces pathophysiologic changes similar to those seen in human adult respiratory distress syndrome (ARDS) (Lee, et al., Am. J. Resp Cell Mol Biol. 14: 556-568; and Clerch, and Massaro, J. Clin. Invest. 91: 499-1508). […] These rats will uniformly die by 72 h of continuous hyperoxic exposure (Lee, et al. and Clerch, supra). In this study, one group of rats were placed in hyperoxia (>98% oxygen O2) alone while the second group of rats were placed in an identical chamber and exposed to the same levels of hyperoxia in the presence of a low concentration of CO (250 ppm). […] We observed concentration dependent protection against hyperoxia at both 72 and 100 h of hyperoxia exposure (Table 1). (P-value for the association between survival and CO concentration is 0.001 by logistic regression). Carboxyhemoglobin levels, a standard measurement of CO levels in the blood, correlated with increasing concentrations of CO exposure and survival of animals to lethal hyperoxia (Table 1, below).

[C-]#[O+] [CO, carbon monoxide]
LPS-induced p38 MAP kinase activation [1]: significantly augmented | LPS-induced ERK1/ERK2 MAP kinase activation [2]: not affected | LPS-induced JNK MAP kinase activation [3]: not affected | survival in hyperoxia ([4]; hyperoxia (>98% O2), CO 250 ppm, 72 h): all animals were alive at the 72 h time point | % Survival 72 h ([4]; CO 50 ppm, 72 h): 33% | % Survival 100 h ([4]; CO 50 ppm): 0% | % Survival 72 h ([4]; CO 100 ppm, 72 h): 50% | % Survival 100 h ([4]; CO 100 ppm): 50% | % Survival 72 h ([4]; CO 250 ppm, 72 h): 100% | % Survival 100 h ([4]; CO 250 ppm): 80% | % Survival 72 h ([4]; CO 500 ppm, 72 h): 100% | % Survival 100 h ([4]; CO 500 ppm): 80%
